Measured values published in ChEMBL document CHEMBL4725398 (Bioorg Med Chem, 2020).

Assays:
[1] = biological target: Epidermal growth factor receptor (Homo sapiens, UniProt P00533); assay: Inhibition of wild type EGFR (unknown origin) in presence of ATP preincubated 5 mins measured for 30 mins by detection reagent based HTRF analysis
[2] = biological target: Epidermal growth factor receptor (Homo sapiens, UniProt P00533, L858R/T790M); assay: Inhibition of recombinant human EGFR T790M/L858R mutant expressed in baculovirus insect cell expression system in presence of ATP preincubated 5 mins measured for 30 mins by detection reagent based HTRF analysis
Epidermal growth factor receptor (Homo sapiens, UniProt P00533, L858R/T790M), sequence (P00533 25-1210 T790M/L858R limits assumed): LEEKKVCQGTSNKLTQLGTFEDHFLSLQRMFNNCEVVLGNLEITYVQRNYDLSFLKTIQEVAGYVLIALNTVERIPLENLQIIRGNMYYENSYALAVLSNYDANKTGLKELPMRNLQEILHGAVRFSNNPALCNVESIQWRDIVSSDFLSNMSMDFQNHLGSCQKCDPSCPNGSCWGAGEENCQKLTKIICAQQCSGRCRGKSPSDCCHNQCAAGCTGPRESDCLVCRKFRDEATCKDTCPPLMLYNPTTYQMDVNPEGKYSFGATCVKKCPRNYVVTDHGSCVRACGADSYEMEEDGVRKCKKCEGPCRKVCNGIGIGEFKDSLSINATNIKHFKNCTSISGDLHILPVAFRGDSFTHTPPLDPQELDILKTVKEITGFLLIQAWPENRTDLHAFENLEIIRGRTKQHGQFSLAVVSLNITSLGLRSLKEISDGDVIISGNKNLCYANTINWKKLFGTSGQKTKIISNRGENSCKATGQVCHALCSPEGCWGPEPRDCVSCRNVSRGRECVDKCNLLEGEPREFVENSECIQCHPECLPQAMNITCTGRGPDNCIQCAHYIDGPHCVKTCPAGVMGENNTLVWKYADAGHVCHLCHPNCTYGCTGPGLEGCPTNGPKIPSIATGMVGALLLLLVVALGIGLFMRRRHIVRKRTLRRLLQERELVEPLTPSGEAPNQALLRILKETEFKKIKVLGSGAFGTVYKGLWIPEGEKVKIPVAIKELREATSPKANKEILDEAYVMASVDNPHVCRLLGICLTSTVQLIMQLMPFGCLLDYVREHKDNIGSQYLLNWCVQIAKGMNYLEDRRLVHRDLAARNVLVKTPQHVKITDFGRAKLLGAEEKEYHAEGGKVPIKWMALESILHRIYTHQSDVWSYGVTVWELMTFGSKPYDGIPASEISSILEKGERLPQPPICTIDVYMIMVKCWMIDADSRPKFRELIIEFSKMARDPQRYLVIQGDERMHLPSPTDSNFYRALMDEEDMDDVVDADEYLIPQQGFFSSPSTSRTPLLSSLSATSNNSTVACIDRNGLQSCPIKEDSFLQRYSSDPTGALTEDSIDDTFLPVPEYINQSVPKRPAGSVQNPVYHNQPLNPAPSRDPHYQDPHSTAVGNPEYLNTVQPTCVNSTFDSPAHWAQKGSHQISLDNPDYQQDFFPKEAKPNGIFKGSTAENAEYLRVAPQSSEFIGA

[3] = tested on: A-431; assay: cells; conditions: Homo sapiens, A-431, 48 h
Description: Antiproliferation activity against human A431 cells assessed as reduction in cell viability incubated incubated for 48 hrs by MTT assay

[4] = tested on: NCI-H1975; assay: cells; conditions: Homo sapiens, NCI-H1975, 48 h
[5] = tested on: SW-620; assay: cells; conditions: Homo sapiens, SW-620, 48 h
Description: Antiproliferation activity against EGFR-negative human SW620 cells assessed as reduction in cell viability incubated incubated for 48 hrs by MTT assay

[6] = tested on: COS-7; assay: Cytotoxicity against African green monkey COS7 cells assessed as decrease in cell viability incubated incubated for 48 hrs by MTT assay; format: cell-based; conditions: Chlorocebus aethiops, COS-7, 48 h
[7] = tested on: NCI-H1975; assay: Cell cycle arrest in human NCI-H1975 cells assessed as increase in accumulation at G0/G1 phase at 0.25 to 1 uM treated for 24 hrs measured after 2 days by propidium iodide staining based flow cytometric analysis (reference value: 41.92%); format: functional; conditions: dose microM 0.25-1
[8] = tested on: NCI-H1975; assay: Cell cycle arrest in human NCI-H1975 cells assessed as decrease in accumulation at G2/M phase at 0.25 to 1 uM incubated for 24 hrs measured after 2 days by propidium iodide staining based flow cytometric analysis (reference value: 34.04%); format: functional; design: scale not given: the % may be the effect or the level left; conditions: dose microM 0.25-1
[9] = tested on: NCI-H1975; assay: Cell cycle arrest in human NCI-H1975 cells assessed as diploid cell at 0.25 uM incubated for 24 hrs measured after 2 days by propidium iodide staining based flow cytometric analysis (reference value: 100 %); format: functional
[10] = tested on: NCI-H1975; assay: Cell cycle arrest in human NCI-H1975 cells assessed as diploid cell at 0.5 uM incubated for 24 hrs measured after 2 days by propidium iodide staining based flow cytometric analysis (reference value: 100 %); format: functional
[11] = tested on: NCI-H1975; assay: Cell cycle arrest in human NCI-H1975 cells assessed as diploid cell at 1 uM incubated for 24 hrs measured after 2 days by propidium iodide staining based flow cytometric analysis (reference value: 100 %); format: functional
[12] = tested on: NCI-H1975; assay: Cell cycle arrest in human NCI-H1975 cells assessed as accumulation at G1 phase at 0.25 uM incubated for 24 hrs measured after 2 days by propidium iodide staining based flow cytometric analysis (reference value: 41.92 %); format: functional
[13] = tested on: NCI-H1975; assay: Cell cycle arrest in human NCI-H1975 cells assessed as accumulation at G1 phase at 0.5 uM incubated for 24 hrs measured after 2 days by propidium iodide staining based flow cytometric analysis (reference value: 41.92 %); format: functional
[14] = tested on: NCI-H1975; assay: Cell cycle arrest in human NCI-H1975 cells assessed as accumulation at G1 phase at 1 uM incubated for 24 hrs measured after 2 days by propidium iodide staining based flow cytometric analysis (reference value: 41.92 %); format: functional
[15] = tested on: NCI-H1975; assay: Cell cycle arrest in human NCI-H1975 cells assessed as accumulation at S phase at 0.25 uM incubated for 24 hrs measured after 2 days by propidium iodide staining based flow cytometric analysis (reference value: 24.04 %); format: functional
[16] = tested on: NCI-H1975; assay: Cell cycle arrest in human NCI-H1975 cells assessed as accumulation at S phase at 0.5 uM incubated for 24 hrs measured after 2 days by propidium iodide staining based flow cytometric analysis (reference value: 24.04 %); format: functional
[17] = tested on: NCI-H1975; assay: Cell cycle arrest in human NCI-H1975 cells assessed as accumulation at S phase at 1 uM incubated for 24 hrs measured after 2 days by propidium iodide staining based flow cytometric analysis (reference value: 24.04 %); format: functional
[18] = tested on: NCI-H1975; assay: Cell cycle arrest in human NCI-H1975 cells assessed as accumulation at G2 phase at 0.25 uM incubated for 24 hrs measured after 2 days by propidium iodide staining based flow cytometric analysis (reference value: 34.04 %); format: functional
[19] = tested on: NCI-H1975; assay: Cell cycle arrest in human NCI-H1975 cells assessed as accumulation at G2 phase at 0.5 uM incubated for 24 hrs measured after 2 days by propidium iodide staining based flow cytometric analysis (reference value: 34.04 %); format: functional
[20] = tested on: NCI-H1975; assay: Cell cycle arrest in human NCI-H1975 cells assessed as accumulation at G2 phase at 1 uM incubated for 24 hrs measured after 2 days by propidium iodide staining based flow cytometric analysis (reference value: 34.04 %); format: functional
[21] = tested on: NCI-H1975; assay: Cell cycle arrest in human NCI-H1975 cells assessed as accumulation at G2/G1 phase at 0.25 uM incubated for 24 hrs measured after 2 days by propidium iodide staining based flow cytometric analysis (reference value: 1.89 %); format: functional
[22] = tested on: NCI-H1975; assay: Cell cycle arrest in human NCI-H1975 cells assessed as accumulation at G2/G1 phase at 0.5 uM incubated for 24 hrs measured after 2 days by propidium iodide staining based flow cytometric analysis (reference value: 1.89 %); format: functional
[23] = tested on: NCI-H1975; assay: Cell cycle arrest in human NCI-H1975 cells assessed as accumulation at G2/G1 phase at 1 uM incubated for 24 hrs measured after 2 days by propidium iodide staining based flow cytometric analysis (reference value: 1.89 %); format: functional

Epidermal growth factor receptor (Homo sapiens, UniProt P00533), sequence (P00533 whole entry): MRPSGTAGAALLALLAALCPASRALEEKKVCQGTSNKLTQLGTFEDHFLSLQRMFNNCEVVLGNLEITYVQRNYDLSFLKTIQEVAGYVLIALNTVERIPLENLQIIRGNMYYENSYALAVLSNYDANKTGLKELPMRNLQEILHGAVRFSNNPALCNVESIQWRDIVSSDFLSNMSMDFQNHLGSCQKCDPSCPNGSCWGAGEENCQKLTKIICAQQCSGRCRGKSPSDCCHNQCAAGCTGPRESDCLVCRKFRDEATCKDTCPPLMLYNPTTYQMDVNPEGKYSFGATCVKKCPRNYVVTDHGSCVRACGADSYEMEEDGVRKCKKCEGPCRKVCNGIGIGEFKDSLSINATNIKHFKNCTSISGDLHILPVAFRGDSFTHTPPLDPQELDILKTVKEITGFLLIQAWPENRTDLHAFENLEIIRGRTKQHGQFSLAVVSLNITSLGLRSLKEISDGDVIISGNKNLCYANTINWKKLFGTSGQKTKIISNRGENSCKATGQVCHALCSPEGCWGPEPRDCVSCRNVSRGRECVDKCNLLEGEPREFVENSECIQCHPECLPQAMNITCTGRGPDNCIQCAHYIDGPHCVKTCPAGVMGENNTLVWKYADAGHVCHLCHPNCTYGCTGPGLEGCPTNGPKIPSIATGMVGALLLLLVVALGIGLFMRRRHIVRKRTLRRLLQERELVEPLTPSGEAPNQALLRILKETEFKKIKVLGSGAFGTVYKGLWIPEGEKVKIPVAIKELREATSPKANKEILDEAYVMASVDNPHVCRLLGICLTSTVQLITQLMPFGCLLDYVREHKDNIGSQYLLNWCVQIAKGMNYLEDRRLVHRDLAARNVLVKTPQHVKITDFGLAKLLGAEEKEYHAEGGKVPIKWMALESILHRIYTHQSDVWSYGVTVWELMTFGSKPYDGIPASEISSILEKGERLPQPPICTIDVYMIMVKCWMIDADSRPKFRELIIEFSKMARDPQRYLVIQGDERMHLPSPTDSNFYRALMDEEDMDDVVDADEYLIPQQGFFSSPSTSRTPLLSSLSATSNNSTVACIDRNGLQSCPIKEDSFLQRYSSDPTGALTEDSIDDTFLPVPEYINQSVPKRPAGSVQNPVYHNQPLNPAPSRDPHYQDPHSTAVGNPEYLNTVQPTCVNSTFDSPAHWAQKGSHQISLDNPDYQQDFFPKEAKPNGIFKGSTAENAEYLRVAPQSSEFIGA

| Compound | IC50 [3] | IC50 [4] | IC50 [5] | further results |
| --- | --- | --- | --- | --- |
| C=C(Cl)C(=O)Nc1cccc(Nc2nc(Nc3ccc(N4CCN(C(C)=O)CC4)nc3)ncc2Cl)c1 | 870 nM | 1640 nM | 2410 nM | IC50 [1]: 130 nM; IC50 [2]: 7.5 nM |
| C=C(Cl)C(=O)Nc1cccc(Oc2nc(Nc3ccc(N4CCN(C)CC4)cc3OC)ncc2Cl)c1 | 1060 nM | 13600 nM | – | – |
| C=C(Cl)C(=O)Nc1cccc(Nc2nc(Nc3ccc(N4CCN(C(C)=O)CC4)c(C)c3)ncc2Cl)c1 | 1300 nM | 180 nM | 2070 nM | IC50 [6]: 5400 nM; IC50 [1]: 51 nM; IC50 [2]: 2.6 nM |
| C=C(Cl)C(=O)Nc1cccc(Nc2nc(Nc3ccc(N4CCN(C(C)=O)CC4)cc3OC)ncc2C(F)(F)F)c1 | 3680 nM | 200 nM | 3990 nM | IC50 [1]: 257 nM; IC50 [2]: 16 nM |
| C=C(F)C(=O)Nc1cc(Nc2ncc(Cl)c(-c3cn(C)c4ccccc34)n2)ccc1N(C)C | > 50000 nM | > 50000 nM | – | – |
| C=C(Cl)C(=O)Nc1cccc(Nc2nc(Nc3ccc(N4CCN(C(C)=O)CC4)c(Cl)c3)ncc2Cl)c1 | 140 nM | 1020 nM | 2340 nM | IC50 [6]: 7220 nM; IC50 [1]: 53 nM; IC50 [2]: 3.2 nM |
| C=C(Cl)C(=O)Nc1cccc(Nc2nc(Nc3ccc(N4CCN(C(C)=O)CC4)cc3Cl)ncc2Cl)c1 | 1830 nM | 1720 nM | 3020 nM | IC50 [6]: 14900 nM; IC50 [1]: 301 nM; IC50 [2]: 47 nM |
| C=C(C(=O)Nc1cccc(Nc2nc(Nc3ccc(N4CCN(C(C)=O)CC4)cc3)ncc2Cl)c1)c1ccccc1 | 6160 nM | 5790 nM | – | – |
| C=C(Cl)C(=O)Nc1cccc(Nc2nc(Nc3ccc(N4CCN(C(C)=O)CC4)c(F)c3)ncc2Cl)c1 | 1140 nM | 420 nM | – | – |
| C=C(F)C(=O)Nc1cccc(Nc2nc(Nc3ccc(N4CCN(C(C)=O)CC4)c(F)c3)ncc2Cl)c1 | 7090 nM | 6560 nM | – | – |
| C=C(Cl)C(=O)Nc1cccc(Oc2nc(Nc3ccc(N4CCN(C(C)=O)CC4)cc3)ncc2Cl)c1 | 620 nM | 1150 nM | 4600 nM | IC50 [1]: 130 nM; IC50 [2]: 13 nM |
| C=C(Cl)C(=O)Nc1cc(Nc2ncc(Cl)c(-c3cn(C)c4ccccc34)n2)ccc1N(C)C | 2200 nM | 16900 nM | – | – |
| C=C(F)C(=O)Nc1cccc(Nc2nc(Nc3ccc(N4CCN(C(C)=O)CC4)c(Cl)c3)ncc2Cl)c1 | 7130 nM | 4180 nM | – | – |
| C=C(Cl)C(=O)Nc1cccc(Nc2nc(Nc3ccc(N4CCN(C(C)=O)CC4)cc3)ncc2Cl)c1 | 3140 nM | 750 nM | 29200 nM | IC50 [6]: 10400 nM; Activity [7]: 58.39%; Activity [8]: 22.18%; Activity [9]: 98.52%; Activity [10]: 98.81%; Activity [11]: 99.81%; Activity [12]: 54.06%; Activity [13]: 58.39%; Activity [14]: 63.96%; Activity [15]: 21.67%; Activity [16]: 19.43%; Activity [17]: 16.89%; Activity [18]: 24.27%; Activity [19]: 22.18%; Activity [20]: 19.15%; Activity [21]: 1.95%; Activity [22]: 1.94%; Activity [23]: 1.89%; IC50 [1]: 70 nM; IC50 [2]: 3.9 nM |
| C=C(F)C(=O)Nc1cccc(Nc2nc(Nc3ccc(N4CCN(C(C)=O)CC4)cc3)ncc2Cl)c1 | 6500 nM | 340 nM | 3610 nM | – |
| C=C(F)C(=O)Nc1cccc(Nc2nc(Nc3ccc(N4CCN(C(C)=O)CC4)nc3)ncc2Cl)c1 | 18100 nM | 20500 nM | – | – |
| C=C(F)C(=O)Nc1cccc(Oc2nc(Nc3ccc(N4CCN(C)CC4)cc3OC)ncc2Cl)c1 | 11000 nM | 16700 nM | – | – |

Further lines, with some results ahead:

| IC50 [3] | IC50 [4] | Compound | IC50 [5] | further results |
| --- | --- | --- | --- | --- |
| 1580 nM | 1820 nM | C=C(F)C(=O)Nc1cccc(Nc2nc(Nc3ccc(N4CCN(C(C)=O)CC4)cc3OC)ncc2Cl)c1 | – | – |
| 4440 nM | 3120 nM | C=C(Cl)C(=O)Nc1cccc(Nc2nc(Nc3ccc(N4CCN(C(C)=O)CC4)cc3OC)ncc2Cl)c1 | – | – |
| > 50000 nM | 7030 nM | C=C(F)C(=O)Nc1cccc(Oc2nc(Nc3ccc(N4CCN(C(C)=O)CC4)cc3OC)ncc2Cl)c1 | – | – |
| 1470 nM | 2500 nM | C=C(Cl)C(=O)Nc1cccc(Oc2nc(Nc3ccc(N4CCN(C(C)=O)CC4)c(C(F)(F)F)c3)ncc2Cl)c1 | – | – |
| 2860 nM | 9880 nM | C=C(F)C(=O)Nc1cccc(Nc2nc(Nc3ccc(N4CCN(C(C)=O)CC4)c(C(F)(F)F)c3)ncc2Cl)c1 | – | – |
| 1890 nM | 3320 nM | C=C(Cl)C(=O)Nc1cccc(Oc2nc(Nc3ccc(N4CCN(C(C)=O)CC4)cc3OC)ncc2Cl)c1 | – | – |
| 2370 nM | 3820 nM | C=C(C)C(=O)Nc1cccc(Nc2nc(Nc3ccc(N4CCN(C(C)=O)CC4)cc3OC)ncc2Cl)c1 | – | – |
| 10600 nM | 5570 nM | C=C(C)C(=O)Nc1cccc(Nc2nc(Nc3ccc(N4CCN(C(C)=O)CC4)cc3)ncc2Cl)c1 | – | – |
| 6010 nM | 510 nM | C=CC(=O)Nc1cccc(Nc2nc(Nc3ccc(N4CCN(C(C)=O)CC4)cc3OC)ncc2C(F)(F)F)c1 [ROCILETINIB] | 10500 nM | IC50 [6]: 7390 nM |
